Literature values as cited in patent US9554998B1, “Composition of analgesic bioadhesive healing microspheres” (priority 2015, dated 2017).

Assays:
[1] = applied for 30 minutes to the forearms of healthy volunteers
[2] = single patient

Structure (SMILES) | local analgesic effect [1] | analgesic control ([2]; liquid sevoflurane directly on to the ulcer bed) | time the ulcer took to heal ([2]; liquid sevoflurane on the ulcer bed)
FC(F)(F)C(Cl)Br (centres unmarked) [halothane] | slight local analgesic effect |  | 
FC(F)OC(Cl)C(F)(F)F (centres unmarked) [isoflurane] | slight local analgesic effect |  | 
FCOC(C(F)(F)F)C(F)(F)F [sevoflurane, fluoromethyl 2.2.2-trifluoro-1-(trifluoromethyl)ethyl ether] | slight local analgesic effect | immediate, intense and long-lasting analgesia | 16 days
